One assay relates to SCPJU. Description: Post-emergence foliar-applied weed control, greenhouse (Example I). The format is in vivo, Schoenoplectus juncoides (Roxb.) Palla. The text has this: (§1) Evaluation of Post-emergence Foliar-Applied Herbicidal Mixtures for Weed Control in Direct Seeded Rice
(§2) Seeds or nutlets of the desired test plant species were planted in a soil matrix prepared by mixing a loam or sandy loam soil (e.g., 28.6 percent silt, 18.8 percent clay, and 52.6 percent sand, with a pH of about 5.8 and an organic matter content of about 1.8 percent) and calcareous grit in an 80 to 20 ratio. The soil matrix was contained in plastic pots with a volume of 1 quart and a surface area of 83.6 square centimeters (cm^2). When required to ensure good germination and healthy plants, a fungicide treatment and/or other chemical or physical treatment was applied. The plants were grown for 8-22 days in a greenhouse with an approximate 14 h photoperiod which was maintained at about 29° C. during the day and 26° C. during the night. Nutrients (Peters Excel® 15-5-15 5-Ca 2-Mg and iron chelate) were applied in the irrigation solution as needed and water was added on a regular basis. Supplemental lighting was provided with overhead metal halide 1000-Watt lamps as necessary. The plants were employed for testing when they reached the first through fourth true leaf stage.
(§3) Treatments consisted of the acid or esters of 4-amino-3-chloro-5-fluoro-6-(4-chloro-2-fluoro-3-methoxy-phenyl)pyridine-2-carboxylic acid (Compound A), each formulated as an SC (suspension concentrate), and various herbicidal components alone and in combination. Forms of Compound A were applied on an acid equivalent basis.
(§4) Other herbicidal components were applied on an active ingredient basis and included 4-hydroxyphenyl pyruvate dioxygenase (HPPD)-inhibiting herbicides mesotrione formulated as Callisto®, sulcotrione formulated as Mikado®, pyrazolynate formulated as Sunbird® 10% GR, and benzobicyclon formulated as Benzobicyclon 3.5%.
(§5) Treatment requirements were calculated based upon the rates being tested, the concentration of active ingredient or acid equivalent in the formulation, and a 12 mL application volume at a rate of 187 L/ha.
(§6) For treatments comprised of formulated compounds, measured amounts of compounds were placed individually in 25 mL glass vials and diluted in a volume of 1.25% (v/v) Agri-Dex® crop oil concentrated to obtain 12× stock solutions. […] Application solutions were prepared by adding an appropriate amount of each stock solution (e.g., 1 mL) and diluted to the appropriate final concentrations with the addition of 10 mL of an aqueous mixture of 1.25% (v/v) crop oil concentrate so that the final spray solutions contained 1.25+/−0.05% (v/v) crop oil concentrate.
(§7) For treatments comprised of formulated and technical compounds, weighed amounts of the technical materials were placed individually in 25 mL glass vials and dissolved in a volume of 97:3 v/v acetone/DMSO to obtain 12× stock solutions, and measured amounts of the formulated compounds were placed individually in 25 mL glass vials and diluted in a volume of 1.5% (v/v) crop oil concentrate or water to obtain 12× stock solutions. […] Application solutions were prepared by adding an appropriate amount of each stock solution (e.g., 1 mL) and diluted to the appropriate final concentrations with the addition of an appropriate amount of an aqueous mixture of 1.5% (v/v) crop oil concentrate so that the final spray solutions contained 1.25% (v/v) crop oil concentrate. As required, additional water and/or 97:3 v/v acetone/DMSO was added to individual application solutions so that the final acetone and DMSO concentrations of the application solutions being compared were 8.1% and 0.25%, respectively.
(§8) All stock solutions and applications solutions were visually inspected for compound compatibility prior to application. Spray solutions were applied to the plant material with an overhead Mandel track sprayer equipped with a 8002E nozzles calibrated to deliver 187 L/ha over an application area of 0.503 m^2 at a spray height of 18 to 20 inches (46 to 50 cm) above average plant canopy height. […]

For another assay, the system named is ECHCO. Described as above. The format is in vivo, Echinochloa colona (L.) Link.
Description: as §1, §2, §3, §4, §5, §6, §7, §8

The subject of another assay is ECHOR. Description: In-water applied weed control, transplanted paddy rice, greenhouse (Example II). Type of assay: in vivo, Echinochloa oryzoides (Ard.) Fritsch. On the procedure:
(§9) Evaluation of in-Water Applied Herbicidal Mixtures for Weed Control in Transplanted Paddy Rice
(§10) Weed seeds or nutlets of the desired test plant species were planted in puddled soil (mud) prepared by mixing a shredded, non-sterilized mineral soil (50.5 percent silt, 25.5 percent clay, and 24 percent sand, with a pH of about 7.6 and an organic matter content of about 2.9 percent) and water at a 1:1 volumetric ratio. The prepared mud was dispensed in 365 mL aliquots into 16-ounce (oz.) non-perforated plastic pots with a surface area of 86.59 square centimeters (cm^2) leaving a headspace of 3 centimeters (cm) in each pot. Mud was allowed to dry overnight prior to planting or transplanting. Rice seeds were planted in Sun Gro MetroMix® 306 planting mixture, which typically has a pH of 6.0 to 6.8 and an organic matter content of about 30 percent, in plastic plug trays. Seedlings at the second or third leaf stage of growth were transplanted into 840 mL of mud contained in 32-oz. non-perforated plastic pots with a surface area of 86.59 cm^2 4 days prior to herbicide application. The paddy was created by filling the headspace of the pots with 2.5 to 3 cm of water. When required to ensure good germination and healthy plants, a fungicide treatment and/or other chemical or physical treatment was applied. The plants were grown for 4-22 days in a greenhouse with an approximate 14 h photoperiod which was maintained at about 29′C during the day and 26° C. during the night. Nutrients were added as Osmocote® (19:6:12, N:P:K+ minor nutrients) at 2 g per 16-oz. pot and 4 g per 32-oz. pot. Water was added on a regular basis to maintain the paddy flood, and supplemental lighting was provided with overhead metal halide 1000-Watt lamps as necessary. The plants were employed for testing when they reached the first through fourth true leaf stage.
(§11) Treatments consisted of the acid or esters of 4-amino-3-chloro-5-fluoro-6-(4-chloro-2-fluoro-3-methoxy-phenyl)pyridine-2-carboxylic acid (compound A) each formulated as an SC (suspension concentrate) and various herbicidal components alone and in combination. Forms of compound A were applied on an acid equivalent basis.
(§12) Other herbicidal components were applied on an active ingredient basis and included 4-hydroxyphenyl pyruvate dioxygenase (HPPD)-inhibiting herbicides mesotrione formulated as Callisto®, sulcotrione formulated as Mikado®, pyrazolynate formulated as Sunbird® 10% GR, and benzobicyclon formulated as Benzobicyclon 3.5% or technical material.
(§13) Treatment requirements for each compound or herbicidal component were calculated based upon the rates being tested, the concentration of active ingredient or acid equivalent in the formulation, an application volume of 2 mL per component per pot, and an application area of 86.59 cm^2 per pot.
(§14) For formulated compounds, a measured amount was placed in an individual 100 or 200 mL glass vial and was dissolved in a volume of 1.25% (v/v) Agri-Dex® crop oil concentrate to obtain application solutions.
(§15) For technical grade compounds, a weighed amount was placed in an individual 100 to 200 mL glass vial and was dissolved in a volume of acetone to obtain concentrated stock solutions. […] The concentrated stock solutions obtained were diluted with an equivalent volume of an aqueous mixture containing 2.5% (v/v) crop oil concentrate so that the final application solutions contained 1.25% (v/v) crop oil concentrate.
(§16) Applications were made by injecting with a pipetter appropriate amounts of the application solutions, individually and sequentially, into the aqueous layer of the paddy. Control plants were treated in the same manner with the solvent blank. Applications were made so that all treated plant material received the same concentrations of acetone and crop oil concentrate.
(§17) The treated plants and control plants were placed in a greenhouse as described above and water was added as needed to maintain a paddy flood. […]

A further assay relates to SCPMA. The assay is described as above. The format is in vivo. On the procedure:
as §9, §10, §11, §12, §13, §14, §15, §16, §17

The test system of assay [1] is ECHCG. The description is as above. Type of assay: in vivo, Echinochloa crusgalli (L.) Beauv. To be noted: Benzobicyclon (3.5%). On the procedure: as §9, §10, §11, §12, §13, §14, §15, §16, §17
For another assay, the system named is CYPIR. Put plainly: Post-emergence foliar-applied weed control, greenhouse (Example I). Type of assay: in vivo, Cyperus iria L.
Description: as §1, §2, §3, §4, §5, §6, §7, §8

Assay [2] concerns ECHCG. Described as above. The format is in vivo, Echinochloa crusgalli (L.) Beauv.
Description: as §1, §2, §3, §4, §5, §6, §7, §8

Another assay concerns CYPRO. Put plainly: In-water applied weed control, transplanted paddy rice, greenhouse (Example II). Type of assay: in vivo, Cyperus rotundus L. Here is the method: as §9, §10, §11, §12, §13, §14, §15, §16, §17
The mark [3] stands for this setting: 50 gai/ha, Benzobicyclon (technical).
Setting [4] is: 100 gae/ha, Benzobicyclon (technical).
The mark [5] stands for this setting: 100 gai/ha, Benzobicyclon (3.5%).
[6] abbreviates: 200 gai/ha, Benzobicyclon (3.5%).

In the case of `CS(=O)(=O)c1ccc(C(=O)C2=C(Sc3ccccc3)C3CCC(C3)C2=O)c(Cl)c1` (stereo not shown) [Benzobicyclon, 3-(2-chloro-4-mesylbenzoyl)-2-phenylthiobicyclo[3.2.1]oct-2-en-4-one, reference compound], the “Visual Weed Control (%) - 22 DAA SCPJU Obs” value in the assay on SCPJU (50 gai/ha) amounted to 50%; in the assay on SCPJU (100 gai/ha), 60%; with SCPJU (200 gai/ha), 70%. The “Visual Weed Control (%) - 22 DAA ECHCO Obs” value with ECHCO (50 gai/ha) amounted to 10%; in the assay with ECHCO (100 gai/ha), 10%; in the assay on ECHCO (200 gai/ha), 85%. Besides, the “Visual Weed Control (%) - 22 DAA ECHOR Obs” value with ECHOR (setting [3]) came out at 50%. In the assay on ECHOR (setting [4]), the “Visual Weed Control (%) - 21 DAA ECHOR Obs” value was determined as 30%. Further, the “Visual Weed Control (%) - 21 DAA SCPMA Obs” value with SCPMA (setting [4]) is 80%; with SCPMA (setting [5]), 70%; with SCPMA (setting [6]), 93%. Further, the “Visual Weed Control (%) - 22 DAA ECHCG Obs” value with ECHCG [1] (100 gai/ha) came out at 30%; with ECHCG [1] (200 gai/ha), 45%; with ECHCG [2] (50 gai/ha), 0%; in the assay with ECHCG [2] (100 gai/ha), 20%; with ECHCG [2] (200 gai/ha), 15%. In addition, the “Visual Weed Control (%) - 22 DAA CYPIR Obs” value with CYPIR (100 gai/ha) and in the assay with CYPIR (200 gai/ha) was 0% each time. Besides, the “Visual Weed Control (%) - 22 DAA CYPRO Obs” value in the assay on CYPRO (setting [3]) is recorded as 10%; with CYPRO (setting [5]) it was 30%; in the assay with CYPRO (setting [6]), 45%.
As to `CCCCOC(=O)c1nc(-c2ccc(Cl)c(OC)c2F)c(F)c(N)c1Cl` [Compound A n-Butyl Ester], the “Visual Weed Control (%) -20 DAA ECHOR Obs” value stood at 35% in the assay with ECHOR (35 gae/ha) and 40% in the assay with ECHOR (70 gae/ha). In addition, the figures for the “Visual Weed Control (%) - 21 DAA ECHCG Obs” value with ECHCG [2] (17.5 gae/ha) and in the assay with ECHCG [2] (35 gae/ha) were 78% and 93%, respectively.

Source of the values: US8841233B2, “Herbicidal compositions comprising 4-amino-3-chloro-5-fluoro-6-(4-chloro-2-fluoro-3-methoxyphenyl) pyridine-2-carboxylic acid or a derivative thereof and 4-hydroxyphenyl-pyruvate dioxygenase (HPPD) inhibitors” (Dow Agrosciences LLC, priority 2012, dated 2014).
